The target of this test is T1, rhBACE-1 β-Secretase recombinant human (Homo sapiens, UniProt P56817).
T1 construct: purchased R&D Systems 931-AS
Nature of the test: BACE assay (FRET, fluorogenic peptide substrate cleavage). The format is biochemical. The note with it: for activity at 10 µM: read-out: % BACE Activity (10^-5 M). From the text:
The aim of this assay is to determine if a compound, either synthetic or of marine origin, is a BACE-1 inhibitor, to avoid the formation of Aβ. This assay is based on FRET technology (Fluorescence Resonance Energy Transfer). FRET is used to measure cleavage of a peptide substrate, among other uses. […] When a substrate peptide cleavage occurs, the energy balance is broken and all the donor fluorescence can be observed. The increase in fluorescence is linearly related to the rate of proteolysis (Gordon, GW et al., 1998). In this assay the reaction occurs between an enzyme, purified BACE-1, and a fluorogenic peptidic substrate who present the "Swedish mutation". The peptide cleavage by BACE-1 produces fluorescence energy and enzymatic activity can be quantified. The reagents which are used in this assay are the following: • rhBACE-1 β-Secretase recombinant human (R&D Systems. Ref. 931-AS). • Fluorogenic Peptide Substrate IV (R&D Systems. Ref. ES004). • B-SECRETASE INHIBITOR H-4848. (BACHEM. Ref. H-4848.0001). • FLUOSTAR OPTIMA plate reader with 320 nm excitation filter and 405 nm emission filter (Biogen cientifica). • Black microwell plate, 96 wells (Nunc. Ref. 00006877). Supplier: Dismadel. • Sodium acetate.
The assay is carried out in a 96 wells microplate. The final concentration of substrate is 3,5 µM per well, and the enzyme concentration is 0,5 µg/ml. The final volume of the assay is 100 µl per well and all reagents are diluted in Reaction Buffer. The compounds are tested at a concentration of 10^-5. The control in the assay is the commercial inhibitor β-Secretase inhibitor H-4848, which is tested at 300 nM. All the samples and controls are studied by duplicate.
The plate is mixed gently and changes in the fluorescence are measured using the plate reader, with "BACE" protocol. The temperature should be preferably maintained between 25 and 30 °C. Measurements are carried out every ten minutes during an hour. The first measure is subtracted from the last to calculate the fluorescence increase, evaluating the enzymatic activity. The 100% activity is calculated as the mean of the results of wells without sample or inhibitor.
Further information regarding this assay may be found in the following references, which are incorporated by reference into the present application: • Andrau, D et al; "BACE1- and BACE2-expressing human cells: characterization of beta-Amyloid precursor protein-derived catabolites, design of a novel fluorimetric assay, and identification of new in vitro inhibitors". J Biol Chem. 2003 Jul 11;278(28):25859-66. Gordon, GW et al; "Quantitative fluorescence resonance energy transfer measurements using fluorescence microscopy." Biophys J. 1998 May; 74:2702-13.

[1] abbreviates: comparative examples (derivatives of arachidonic acid) at 10^-5 M, mean results, remaining enzyme activity, 100% = wells without sample or inhibitor.
Setting [2] is: fatty acids of formula (I) at 10^-5 M, mean results, remaining enzyme activity, 100% = wells without sample or inhibitor.

Where two headings read alike, the source gives them in different places.

T1 sequence (P56817 46-457 limits assumed): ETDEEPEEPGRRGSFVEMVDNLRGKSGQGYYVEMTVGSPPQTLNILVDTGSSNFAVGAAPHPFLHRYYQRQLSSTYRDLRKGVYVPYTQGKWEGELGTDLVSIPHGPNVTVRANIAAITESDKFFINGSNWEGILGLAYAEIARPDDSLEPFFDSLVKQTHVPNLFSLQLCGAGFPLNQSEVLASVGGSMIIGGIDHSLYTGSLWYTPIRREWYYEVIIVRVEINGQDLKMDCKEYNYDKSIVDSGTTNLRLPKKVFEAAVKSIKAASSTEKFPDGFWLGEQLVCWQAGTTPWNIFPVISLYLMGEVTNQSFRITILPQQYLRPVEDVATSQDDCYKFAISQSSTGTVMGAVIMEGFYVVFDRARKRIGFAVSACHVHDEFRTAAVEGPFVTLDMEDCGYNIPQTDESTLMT

As for `CCCCCC=CCC=CCC=CCC=CCCCC(=O)NCCO` [Anandamide, Icosa-5,8,11,14-tetraenoic acid (2-hydroxy-ethyl)-amide], the activity at 10 µM was 100%.
As to `CCCCC/C=C\C/C=C\C/C=C\C/C=C\CCCC(=O)O` [Arachidonic acid, cis,cis,cis,cis-5,8,11,14-Eicosatetraenoic acid], the activity at 10 µM came to 48.7%.
Turning to `CCCCCC=CCC=CCC=CCC=CCCCCOC(C)=O` [Arachidonyl Acetate, Acetic acid icosa-5,8,11,14-tetraenyl ester], the activity at 10 µM under setting [1] is 100%.
Consider `CCCCCC=CCC=CCC=CCC=CCCCCO` [Arachidonyl alcohol, Icosa-5,8,11,14-tetraen-1-ol], for which the activity at 10 µM under setting [1] amounted to 100%.
As for `CC/C=C\C/C=C\C/C=C\C/C=C\C/C=C\C/C=C\CCC(=O)O` [Docosahexaenoic acid (DHA), cis-4,7,10,13,16,19-Docosahexaenoic Acid], under setting [2], the activity at 10 µM is 82%.
As to `CCCCCC=CCC=CCC=CCC=CCCCC(=O)OCC` [Ethyl arachidonate, 5,8,11,14-Eicosatetraenoic acid ethyl ester], the activity at 10 µM under setting [1] is 100%.
With `CCCCC/C=C\C/C=C\CCCCCCCC(=O)O` [Linoleic acid, cis-9,cis-12-Octadecadienoic acid], the activity at 10 µM under setting [2] is 55%.
In the case of `CC/C=C\C/C=C\C/C=C\CCCCCCCC(=O)O` [Linolenic acid, cis,cis,cis-9,12,15-Octadecatrienoic acid], the activity at 10 µM was determined as 55.5%.
As for “Cyclopropanecarboxylic acid icosa-5,8,11,14-tetraenylam ide [Arachidonylcyclopropylamide (ACPA)]”, for the setting “comparative examples (derivatives of arachidonic acid) at 10^-5 M, mean results, remaining enzyme activity, 100% = wells without sample or inhibitor, 10 µM”, the “% BACE Activity (10^-5 M)” value was 100%.

These data come from EP1772146A1, “Polyunsaturated fatty acids as bace inhibitors” (Neuropharma, S.A., priority 2005, dated 2007).
